Results taken from publication PMC9518609, “Design and synthesis of new trimethoxylphenyl-linked combretastatin analogues loaded on diamond nanoparticles as a panel for ameliorated solubility and antiproliferative activity” (Journal of Enzyme Inhibition and Medicinal Chemistry, 2022).

Experiments:
MDA-MB-231 = test: MTT cytotoxic activity against breast MDA-MB-231 cancer cell line; assay type: cell-based; conditions: Homo sapiens, MDA-MB-231; MTT assay, 24 h treatment
Text: All the synthesised compounds were screened for their cytotoxic activity against breast MDA-MB-231 cancer cell line and compounds 6 and 12 against breast MCF-10A cell line taking CA-4 as a positive control for the analysis. The in vitro cytotoxicity results of the prepared compounds were systematised in Table 1. […] Structurally, the prepared molecules contain three structural variations; including rotatable hydrazide derivatives, the core exchange with imidazolone ring, and the ring expansion with triazinone motif. […] It is noticed that directly attached benzene ring to triazinone scaffold (compound 6) or bioisosteric group (thiazolyl ester) as in compound 12, may contribute to the astonishing cytotoxicity against breast MDA-MB-231 cancer cells.
To measure the cytotoxic activity of the synthesised derivatives 2a–13e in breast cancer (MDA-MB-231) cell line. MTT assay method was applied to assess cell viability assay. All experimental steps were conducted as reported earlier.
Part I: Biological Studies
4.3. Biological evaluation
4.3.1. Cytotoxic activity evaluation
The cytotoxic actvity of the synthesized derivatives 2a-13e was measured in MDA-MB-231 breast cancer cell line and derivatives 6 and 12 in MCF-10A […].
Cell viability assay was assessed using MTT assay method. Cells at density of 1 x 104 were seeded in a 96-well plate at 37 °C for 24 h under 5% CO2. After incubation, the cells were treated with different concentrations of the test schiff bases 2a-13e and incubated for 24 h, then 20 µl of MTT solution at 5 mg/mL was applied and incubated for 4 h at 37 °C.
Dimethyl sulphoxide (DMSO) in volume of 100 µl was added to each well to dissolve the purple formazan that had formed. The color intensity of the formazan product, which represents the growth condition of the cells, is quantified by using an ELISA plate reader (EXL 800, USA) at 570 nm absorbance. The experimental conditions were carried out with at least three replicates, and the experiments were repeated at least three times. […]

Compound	melting point	IC50 (MDA-MB-231)
COc1cc(C=C2N=C(c3cc(OC)c(OC)c(OC)c3)N(C(=O)c3cccc(OC(C)=O)c3)NC2=O)cc(OC)c1OC (hydrate or solvate) [Compound 7, 3-(6-oxo-5–(3,4,5-trimethoxybenzylidene)-3-(3,4,5-trimethoxyphenyl)-1,2,5,6-tetrahydro-1,2,4-triazine-2-carbonyl)phenyl acetate]	199 to 201 °C	
COc1cc(C=C2N=C(c3cc(OC)c(OC)c(OC)c3)N(C(N)=S)NC2=O)cc(OC)c1OC (hydrate or solvate) [Compound 9, 6-oxo-5-(3,4,5-trimethoxybenzylidene)-3-(3,4,5-trimethoxyphenyl)-5,6-dihydro-1,2,4-triazine-2(1H)-carbothioamide]	239 to 241 °C	
COc1cc(C=C(NC(=O)c2cc(OC)c(OC)c(OC)c2)C(=O)NNC(=O)c2cccc(O)c2)cc(OC)c1OC [Compound 2a, N-(3-(2-(3-hydroxybenzoyl)hydrazinyl)-3-oxo-1-(3,4,5-trimethoxyphenyl)prop-1-en-2-yl)-3,4,5-trimethoxybenzamide]	241 to 243 °C	21.7 ± 1.17 µM
COc1cc(C=C(NC(=O)c2cc(OC)c(OC)c(OC)c2)C(=O)NNC(=O)c2ccc(Br)cc2)cc(OC)c1OC [Compound 2b, N-(3-(2-(4-bromobenzoyl)hydrazinyl)-3-oxo-1-(3,4,5-trimethoxyphenyl)prop-1-en-2-yl)-3,4,5-trimethoxybenzamide]	236 to 238 °C	39.7 ± 1.8 µM
COc1cc(C=C(NC(=O)c2cc(OC)c(OC)c(OC)c2)C(=O)NNC(=O)c2ccncc2)cc(OC)c1OC [Compound 2c, N-(3-(2-isonicotinoylhydrazinyl)-3-oxo-1-(3,4,5-trimethoxyphenyl)prop-1-en-2-yl)-3,4,5-trimethoxybenzamide]	227 to 229 °C	13.2 ± 0.71 µM
COc1cc(C=C(NC(=O)c2cc(OC)c(OC)c(OC)c2)C(=O)NNC(=S)Nc2ccccc2)cc(OC)c1OC [Compound 3, 3,4,5-trimethoxy-N-(3-oxo-3-(2-(phenylcarbamothioyl)hydrazinyl)-1-(3,4,5-trimethoxyphenyl)prop-1-en-2-yl)benzamide]	212 to 214 °C	14.9 ± 0.8 µM
COc1cc(C=C2N=C(c3cc(OC)c(OC)c(OC)c3)NC2=O)cc(OC)c1OC [Compound 4, 4-(3,4,5-trimethoxybenzylidene)-2-(3,4,5-trimethoxyphenyl)-1H-imidazol-5(4H)-one]	212 to 214 °C	36.8 ± 2.81 µM
COc1cc(C=C2N=C(c3cc(OC)c(OC)c(OC)c3)N(N)C2=O)cc(OC)c1OC [Compound 5, 1-amino-4-(3,4,5-trimethoxybenzylidene)-2-(3,4,5-trimethoxyphenyl)-1H-imidazol-5(4H)-one]	205 to 207 °C	57.1 ± 3.23 µM
COc1cc(C=C2N=C(c3cc(OC)c(OC)c(OC)c3)N(C(=O)c3cccc(OC(C)=O)c3)NC2=O)cc(OC)c1OC [Compound 7, 3-(6-oxo-5–(3,4,5-trimethoxybenzylidene)-3-(3,4,5-trimethoxyphenyl)-1,2,5,6-tetrahydro-1,2,4-triazine-2-carbonyl)phenyl acetate]		13.7 ± 1.04 µM
COc1cc(C=C(NC(=O)c2cc(OC)c(OC)c(OC)c2)C(=O)NNC(N)=S)cc(OC)c1OC [Compound 8, N-(3-(2-carbamothioylhydrazinyl)-3-oxo-1-(3,4,5-trimethoxyphenyl)prop-1-en-2-yl)-3,4,5-trimethoxybenzamide]		31.5 ± 1.82 µM
COc1cc(C=C2N=C(c3cc(OC)c(OC)c(OC)c3)N(C(N)=S)NC2=O)cc(OC)c1OC [Compound 9, 6-oxo-5-(3,4,5-trimethoxybenzylidene)-3-(3,4,5-trimethoxyphenyl)-5,6-dihydro-1,2,4-triazine-2(1H)-carbothioamide]		4.14 ± 0.22 µM
CCOC(=O)Cc1csc(NNC(=O)C(=Cc2cc(OC)c(OC)c(OC)c2)NC(=O)c2cc(OC)c(OC)c(OC)c2)n1 [Compound 10, ethyl 2-(2-(2-(2-(3,4,5-trimethoxybenzamido)-3-(3,4,5-trimethoxyphenyl)acryloyl)hydrazinyl)thiazol-4-yl)acetate]	210 to 212 °C	4.8 ± 0.21 µM
COc1cc(C(=O)N/C=C(\C(=O)NNc2nc(-c3ccccc3)cs2)c2cc(OC)c(OC)c(OC)c2)cc(OC)c1OC [Compound 11a, 3,4,5-Trimethoxy-N-(3-oxo-3-(2-(4-arylthiazol-2-yl)hydrazinyl)-1-(3,4,5-trimethoxyphenyl)prop-1-en-2-yl)benzamide]	212 to 214 °C	6.21 ± 0.47 µM
COc1cc(C=C(NC(=O)c2cc(OC)c(OC)c(OC)c2)C(=O)NNc2nc(-c3ccc(Cl)cc3)cs2)cc(OC)c1OC [Compound 11b, N-(3-(2-(4-(4-chlorophenyl)thiazol-2-yl)hydrazinyl)-3-oxo-1-(3,4,5-trimethoxyphenyl)prop-1-en-2-yl)-3,4,5-trimethoxybenzamide]	212 to 214 °C	8.59 ± 2.38 µM
COc1cc(C=C(NC(=O)c2cc(OC)c(OC)c(OC)c2)C(=O)NNc2nc(-c3ccc(Br)cc3)cs2)cc(OC)c1OC [Compound 11c, N-(3-(2-(4-(4-bromophenyl)thiazol-2-yl)hydrazinyl)-3-oxo-1-(3,4,5-trimethoxyphenyl)prop-1-en-2-yl)-3,4,5-trimethoxybenzamide]	212 to 214 °C	25.7 ± 1.9 µM
COc1cc(C=C(NC(=O)c2cc(OC)c(OC)c(OC)c2)C(=O)NNc2nc(-c3cccc([N+](=O)[O-])c3)cs2)cc(OC)c1OC [Compound 11d, 3,4,5-Trimethoxy-N-(3-(2-(4-(3-nitrophenyl)thiazol-2-yl)hydrazinyl)-3-oxo-1–(3,4,5-trimethoxyphenyl)prop-1-en-2-yl)benzamide]	212 to 214 °C	12.2 ± 0.65 µM
COc1cccc(-c2csc(NNC(=O)C(=Cc3cc(OC)c(OC)c(OC)c3)NC(=O)c3cc(OC)c(OC)c(OC)c3)n2)c1 [Compound 11e, 3,4,5-Trimethoxy-N-(3-(2-(4-(3-methoxyphenyl)thiazol-2-yl)hydrazinyl)-3-oxo-1–(3,4,5-trimethoxyphenyl)prop-1-en-2-yl)benzamide]	212 to 214 °C	> 100 µM
COc1cc(C=C2N=C(c3cc(OC)c(OC)c(OC)c3)N(c3nc(-c4ccccc4)cs3)NC2=O)cc(OC)c1OC [Compound 13a, 2-(4-Phenylthiazol-2-yl)-5-(3,4,5-trimethoxybenzylidene)-3–(3,4,5-trimethoxyphenyl)-1,2-dihydro-1,2,4-triazin-6(5H)-one]	212 to 214 °C	19.6 ± 1.42 µM
COc1cc(C=C2N=C(c3cc(OC)c(OC)c(OC)c3)N(c3nc(-c4ccc(Cl)cc4)cs3)NC2=O)cc(OC)c1OC [Compound 13b, 2-(4-(4-Chlorophenyl)thiazol-2-yl)-5-(3,4,5-trimethoxybenzylidene)-3-(3,4,5-trimethoxyphenyl)-1,2-dihydro-1,2,4-triazin-6(5H)-one]	212 to 214 °C	20.7 ± 1.58 µM
COc1cc(C=C2N=C(c3cc(OC)c(OC)c(OC)c3)N(c3nc(-c4ccc(Br)cc4)cs3)NC2=O)cc(OC)c1OC [Compound 13c, 2-(4-(4-Bromophenyl)thiazol-2-yl)-5-(3,4,5-trimethoxybenzylidene)-3-(3,4,5-trimethoxyphenyl)-1,2-dihydro-1,2,4-triazin-6(5H)-one]	212 to 214 °C	10.1 ± 0.54 µM
COc1cc(C=C2N=C(c3cc(OC)c(OC)c(OC)c3)N(c3nc(-c4cccc([N+](=O)[O-])c4)cs3)NC2=O)cc(OC)c1OC [Compound 13d, 2-(4-(3-Nitrophenyl)thiazol-2-yl)-5-(3,4,5-trimethoxybenzylidene)-3-(3,4,5-trimethoxyphenyl)-1,2-dihydro-1,2,4-triazin-6(5H)-one]	212 to 214 °C	3.16 ± 0.17 µM
COc1cccc(-c2csc(N3NC(=O)C(=Cc4cc(OC)c(OC)c(OC)c4)N=C3c3cc(OC)c(OC)c(OC)c3)n2)c1 [Compound 13e, 2-(4-(3-Methoxyphenyl)thiazol-2-yl)-5-(3,4,5-trimethoxybenzylidene)-3-(3,4,5-trimethoxyphenyl)-1,2-dihydro-1,2,4-triazin-6(5H)-one]	212 to 214 °C	33.5 ± 2.47 µM
